The text below walks through data of US6365619B1, “Treatment of arteriosclerosis” (Novartis AG, priority 1999, dated 2002).

Structures are written as SMILES.

Data set [1] relates to neointimal formation in a mouse model of carotid artery transplantation. In words: Murine carotid artery loop transplantation: neointimal formation (transplant-associated arteriosclerosis). The conditions noted are these: mean±SD. Format: in vivo. An excerpt: The effect of compound 369 (VLA-4 antagonist) and compound 741 (VCAM-1 inhibitor) on the development of transplant-associated arteriosclerosis as measured by neointimal formation in a mouse model of carotid artery transplantation is investigated as mono-, combined, and tolerance induction therapy. Grafts are harvested at 30 days post-transplantation.
A murine model of accelerated transplant arteriosclerosis is used. Carotid arteries are allografted from B10.A (2R) to B10.BR mice, a commercially available strain combination that consistently results in neointimal formation 30 days after transplantation. The procedure is performed on anesthetized mice under a surgical dissecting microscope. A midline incision is made on the ventral side of neck from the suprasternal notch to the chin. The left carotid artery is gently dissected from the bifurcation in the distal end toward the proximal end as far as is technically possible. The artery is then occluded with two microvascular clamps, one at each end, and two longitudinal arteriotomies (0.5 to 0.6 mm) are made with a fine needle and scissors. In the donor mouse both the left and right carotid arteries are fully dissected from the arch to the bifurcation. The graft is then transplanted paratopically into the recipient in an end-to-side anastamosis with 11/0 continuous suture, and the skin incision is closed with a 5/0 interrupted suture. […] Vascular grafts are harvested 30 days after transplantation, a point at which a fully developed, nearly occlusive neointima is formed.
Compound 369: In the monotherapy experiments, compound 369 is administered three times per day subcutaneously (s.c.) for a total daily dose of 90 mg/kg/day.
Compound 741: Compound 741 is administered continuously via alzet pump in a dose of 5.0, 1.0, and 0.5 mg/kg/day, respectively.
Anti VLA-4 Mab: The anti VLA-4 antibody is administered 100 μg/mouse/d i.p.
A fixed dose of compound 369 is given as a total daily dose of 60 mg/kg/day s.c. and compound 741 is administered continuously via alzet pump at a dose of 5.0, 1.0, and 0.5 mg/kg/day, respectively.
Compound 369 (60 mg/kg/d) and compound 741 (5 mg/kg/d) are given simultaneously for the first 10 days only.
In all cases, allografts are harvested at day 30. […]
Morphometrical analysis is performed on VerHoeff stained paraffin sections using a computer-assisted image analysis system. The areas of the neointima are measured by computerized planimetry of sections obtained approximately 150, 300, and 450 μm from the center of the graft.
Data from morphometric analyses are reported as the neointima area on cross-section determined by subtracting the new lumen area measurement from the internal elastic lamina (IEL) area measurement for each animal. […]

Data set [2] is described as follows: Dissolution of compound 741 in dosing vehicle. Type of data set: physicochemical. Conditions: 1:1 mixture of CsA placebo solution (Cremphor, ethanol) and propylene glycol. As for the experimental part: Compound 741 is dissolved in a 1:1 mixture of CsA placebo solution (each mL contains 650 mg of Cremphor and 32.9% ethanol) and propylene glycol. Compound 741 is very soluble in this mixture and the final solution is clear.

As for `COCCCN(CC(=O)N[C@@H](CC(=O)O)c1ccc(OC)c(OC)c1)C(=O)Cc1ccc(NC(=O)Nc2ccccc2C)cc1` [Cmpd.369, (S)-β-[3-Methoxypropyl)[[4-[(2-methylphenylaminocarbonylamino)-phenyl]acetyl]amino]acetylamino-3,4-dimethoxy-benzenepropanoic Acid], in data set [1] (monotherapy compound 369 90 mg/kg/d s.c. (three times per day), allograft harvested day 30), the “neointima area on cross-section” value is 19,874 μm^2.
In the case of `CCCCC(C)CC1NC(=O)C(Cc2cn(OC)c3ccccc23)N(C)C(=O)C(CC(C)C)NC(=O)C(CC(C)C)N(C)C(=O)C(CC(C)CCCC)NC(=O)C(CCC(=O)OCCC)OC(=O)C(C)N(C)C1=O` (centres unmarked) [Cmpd.741], the solubility result in data set [2] is on record as “very soluble”. Besides, the “neointima area on cross-section” value in data set [1] (monotherapy Cmpd.741 0.5 mg/kg/d continuously via alzet pump, allograft harvested day 30) is listed as 30,926 μm^2; in data set [1] (monotherapy Cmpd.741 1 mg/kg/d continuously via alzet pump, allograft harvested day 30) it was 32,249 μm^2; in data set [1] (monotherapy Cmpd.741 5 mg/kg/d continuously via alzet pump, B10.A (2R) to B10.BR allograft harvested day 30) it was 18,804 μm^2.
